Data from publication PMC11615764, “Discovery of Ketal‐Ester Ionizable Lipid Nanoparticle with Reduced Hepatotoxicity, Enhanced Spleen Tropism for mRNA Vaccine Delivery” (Advanced Science, 2024).
Entries after “also recorded” stand apart in the source; their conditions may differ. Where two headings read alike, the source gives them in different places.

How the values were obtained:
[1] = LNP apparent pKa, TNS dye‐binding assay; format: physicochemical; conditions: apparent pKa of the LNP
Experimental: Following the formulation methods of SpikeVax and Onpattro, all KEL LNPs were formulated with standard helper lipids: DSPC, Chol, and DMG‐PEG2000 at a molar ratio of Ionizable lipid/DSPC/Chol/DMG‐PEG2000 50:10:38.5:1.5, and at an ionizable lipid to RNA charge ratio (N/P) of 6.^[ [25] ^] Particle size and polydispersity index (PDI) were determined by dynamic light scattering (DLS), apparent pKa was assessed using 6‐(p‐toluidino)‐2‐naphthalenesulfonic acid (TNS) dye‐binding assay, while encapsulation efficiency was evaluated by a RiboGreen accessibility assay.
A series of buffers with pH values varying by 1 between 3.0 and 12.0 were prepared by titrating a solution containing 10 mM citrate, 10 mM phosphate, 10 mM borate, and 150 mM NaCl with 1.0 M HCl and 0.5 M NaOH. LNPs were diluted to 75 µM ionizable lipid, TNS to 6 µM in these buffers. Fluorescence intensity was determined using a Thermo Scientific 3020 spectrophotometer (325 nm excitation/435 nm emission). With the resulting fluorescence values, a sigmoidal plot of fluorescence versus buffer pH was created. The […] inflection point of this curve was the apparent pKa of the LNP formulation.

293T cells [2] = conditions: 50 µM
[3] = Encapsulation efficiency of LNPs, RiboGreen accessibility assay; format: physicochemical; conditions: LNP: ionizable lipid/DSPC/Chol/DMG‐PEG2000 50:10:38.5:1.5, N/P 6
Experimental: (§1) Particle size and polydispersity index (PDI) were determined by dynamic light scattering (DLS), apparent pKa was assessed using 6‐(p‐toluidino)‐2‐naphthalenesulfonic acid (TNS) dye‐binding assay, while encapsulation efficiency was evaluated by a RiboGreen accessibility assay.
(§2) The sizes of the LNP formulations were assessed by DLS (Malvern Zetasizer Pro). Quant‐it RiboGreen assay (ThermoFisher Scientific, Cat# R11490) was used to measure the encapsulation efficiency of the LNP formulations. Briefly, LNPs treated by 1% (v/v) Triton X‐100 (Adamas‐beta) to disrupt LNP structure and release mRNA and untreated LNPs were diluted to a concentration below 2 µg mRNA/mL, then reacted with an equal volume of RiboGreen assay solution at a 200‐fold dilution. Standard curves were generated within the range between 0.0 to 2.0 µg mRNA/mL using a series of free mRNA solutions with or without 1% v/v Triton X‐100. The concentrations of free mRNA and total mRNA in the formulation were determined using bulk fluorescent reading (excitation: 490 nm, emission: 535 nm) of the sample against the corresponding standard curves. The amount of RNA loaded into the LNPs (internal RNA) was calculated by subtracting the values obtained in 1 x TE (external RNA) from 1 x TE + 1% Triton X‐100 (total RNA). Subsequently, the encapsulation efficiency was calculated as the percentage obtained by dividing the amount of internal RNA by the total RNA amount.

[4] = mouse, in vivo, iv, 0.5 mg/kg
[5] = LNP particle size and PDI by dynamic light scattering; format: physicochemical; conditions: LNP: ionizable lipid/DSPC/Chol/DMG‐PEG2000 50:10:38.5:1.5, N/P 6; DLS
Experimental: as §1, §2

Balb/c mice = assay: In vivo firefly luciferase mRNA expression, whole‐body bioluminescence; design: species or system mouse; conditions: mLuci LNP, female Balb/c mice; for delivery potency (whole‐body luciferase), IV and IM: IV 1 mg/kg and IM 0.25 mg/kg; for whole‐body luciferase activity after IM administration: IM 0.25 mg/kg, compared with DLin‐MC3‐DMA LNP; for whole‐body luciferase activity after IV administration: IV 1 mg/kg
Experimental: Subsequently, the formulated KEL LNPs were evaluated for their in vivo delivery efficiency (Figure 1C). Wild‐type female Balb/c mice were administered with a single dose of LNPs containing firefly luciferase mRNA (mLuci) via IV or intramuscular (IM) injection (Figure 2A,B), followed by whole‐body luciferase activity assay. A control group receiving DLin‐MC3‐DMA‐based LNP was included in each experiment to facilitate comparisons across experiments.
Balb/c mice were injected intramuscularly (0.25 mg k^−1g) or intravenously (1 mg k^−1g) with LNPs. At 6 or 24 hrs post‐administration, mice were injected intraperitoneally with 150 mg k^−1g of D‐luciferin monosodium salt (ThermoFisher) and imaged using the in vivo imaging system (IVIS Lumina LT Series III) 10 min post intraperitoneally. 1 × PBS (IM: 50 µL; IV: 200 µL) was injected as a negative control.

293T cells [6] = assay: Cell Counting Kit‐8 cytotoxicity assay; conditions: lipid alone at 50 µM, CCK8, 48 h
human liver microsomes = assay: Microsomal stability of ionizable lipids, human; conditions: 0.5 mg protein/mL, NADPH and UDPGA
[7] = Biodegradability of LNPs after IV injection, ionizable lipid in plasma by LC‐MS/MS; conditions: mLuci LNP IV 0.5 mg/Kg, mice

With CCCCC/C=C\C/C=C\CCCCCCCCC(CCCCCCCC/C=C\C/C=C\CCCCC)OC(=O)CCCN(C)C [DLin‐MC3‐DMA, reference compound] the pKa [1] was 6.33, the cell viability (293T cells [2]) was “over 80%” and the “Encapsulation efficiency (%)” value [3] was 96.7%. The “decline of ionizable lipid level in plasma during the first 6 hrs” value [4] was “reduced faster than (4S)‐KEL12”, the PDI [5] was 0.15 and the “Size (nm)” value [5] was 72.70 nm.

With CCCCCCCCCCCOC(=O)CCCCCC1(CCCCCCCC(=O)OC(CCCCCCCC)CCCCCCCC)OCC(CN(C)C)O1 (stereo not drawn) [KEL1] the pKa [1] was 5.72, the “delivery potency (whole‐body luciferase), IV and IM” value (“delivery potency” for short) (Balb/c mice) was “lower delivery efficiency for both IV and IM administration” and the “Encapsulation efficiency (%)” value [3] was 95.0%. For the same compound, the PDI [5] was 0.12 and the “Size (nm)” value [5] was 76.72 nm.

For CCCCCCCCCCCOC(=O)CCCCCC1(CCCCCCCC(=O)OC(CCCCCCCC)CCCCCCCC)OCC(CCN(C)C)O1 (stereo not drawn) [KEL2], the pKa [1] was 6.88, the “whole‐body luciferase activity after IM administration” value (Balb/c mice) was “significantly higher levels of luciferase activity than the DLin‐MC3‐DMA LNP” and the “delivery potency” value (Balb/c mice) was “higher potency than KEL1 and KEL4; also recorded: higher potency than LNPs with either double branched tails (KEL10) or double linear tails (KEL11)”. The “Encapsulation efficiency (%)” value [3] was 92.3%, the PDI [5] was 0.03 and the “Size (nm)” value [5] was 70.27 nm.

For CCCCCCCCCCCOC(=O)CCCCCC1(CCCCCCCC(=O)OC(CCCCCCCC)CCCCCCCC)OCC(CCCN(C)C)O1 (stereo not drawn) [KEL3], the pKa [1] was 6.86, the “whole‐body luciferase activity after IM administration” value (Balb/c mice) was “significantly higher levels of luciferase activity than the DLin‐MC3‐DMA LNP” and the “delivery potency” value (Balb/c mice) was “higher potency than KEL1 and KEL4”. The “Encapsulation efficiency (%)” value [3] was 89.3%, the PDI [5] was 0.16 and the “Size (nm)” value [5] was 98.15 nm.

With CCCCCCCCCCCOC(=O)CCCCCC1(CCCCCCCC(=O)OC(CCCCCCCC)CCCCCCCC)OCC(CCCCN(C)C)O1 (stereo not drawn) [KEL4] the pKa [1] was 7.40, the “delivery potency” value (Balb/c mice) was “considerable potency” and the “Encapsulation efficiency (%)” value [3] was 91.0%. The PDI [5] was 0.16 and the “Size (nm)” value [5] was 118.1 nm.

With CCCCCCCCCCCOC(=O)CCCCCC1(CCCCCCCC(=O)OC(CCCCCCCC)CCCCCCCC)OCC(CCN(C)CC)O1 (stereo not drawn) [KEL5] the pKa [1] was 6.86, the “Encapsulation efficiency (%)” value [3] was 96.5% and the PDI [5] was 0.07. For the same compound, the “Size (nm)” value [5] was 78.44 nm.

For CCCCCCCCCCCOC(=O)CCCCCC1(CCCCCCCC(=O)OC(CCCCCCCC)CCCCCCCC)OCC(CCN(CC)CC)O1 (stereo not drawn) [KEL6], the pKa [1] was 6.89, the “Encapsulation efficiency (%)” value [3] was 97.5% and the PDI [5] was 0.06. The “Size (nm)” value [5] was 80.34 nm.

With CCCCCCCCCCCOC(=O)CCCCCC1(CCCCCCCC(=O)OC(CCCCCCCC)CCCCCCCC)OCC(CCN(C)CCC)O1 (stereo not drawn) [KEL7] the pKa [1] was 5.91, the “delivery potency” value (Balb/c mice) was “lower delivery efficiency for both IV and IM administration” and the “Encapsulation efficiency (%)” value [3] was 97.2%. The PDI [5] was 0.10 and the “Size (nm)” value [5] was 61.73 nm.

In the case of CCCCCCCCCCCOC(=O)CCCCCC1(CCCCCCCC(=O)OC(CCCCCCCC)CCCCCCCC)OCC(CCN(CC)C(C)C)O1 (stereo not drawn) [KEL8], the pKa [1] is reported as 6.17, the “whole‐body luciferase activity after IV administration” value (Balb/c mice) is reported as “lower potency than those with pKa of 6.7‐7.0” and the “Encapsulation efficiency (%)” value [3] is reported as 97.6%. For the same compound, the PDI [5] was 0.03 and the “Size (nm)” value [5] was 71.68 nm.

In the case of CCCCCCCCCCCNC(=O)CCCCCC1(CCCCCCCC(=O)NC(CCCCCCCC)CCCCCCCC)OCC(CCN(C)C)O1 (stereo not drawn) [KEL9], the pKa [1] is reported as 7.03, the “delivery potency” value (Balb/c mice) is reported as “significantly reduced delivery potency; also recorded: lower delivery efficiency for both IV and IM administration” and the “Encapsulation efficiency (%)” value [3] is reported as 98.2%. For the same compound, the PDI [5] was 0.05 and the “Size (nm)” value [5] was 125.0 nm.

In the case of CCCCCCCCC(CCCCCCCC)OC(=O)CCCCCCCC1(CCCCCCCC(=O)OC(CCCCCCCC)CCCCCCCC)OCC(CCN(C)C)O1 (stereo not drawn) [KEL10], the pKa [1] is reported as 6.09, the “delivery potency” value (Balb/c mice) is reported as “potency diminished compared to KEL2” and the “whole‐body luciferase activity after IV administration” value (Balb/c mice) is reported as “lower potency than those with pKa of 6.7‐7.0”. The “Encapsulation efficiency (%)” value [3] was 96.5%, the PDI [5] was 0.10 and the “Size (nm)” value [5] was 69.23 nm.

For CCCCCCCCCCCOC(=O)CCCCCC1(CCCCCC(=O)OCCCCCCCCCCC)OCC(CCN(C)C)O1 (stereo not drawn) [KEL11], the pKa [1] was 6.88, the “delivery potency” value (Balb/c mice) was “further decrease in potency compared to KEL10” and the “Encapsulation efficiency (%)” value [3] was 93.3%. For the same compound, the PDI [5] was 0.34 and the “Size (nm)” value [5] was 110.3 nm.

In the case of CCCCCCCCCCC(=O)OCCCCCCC1(CCCCCCCC(=O)OC(CCCCCCCC)CCCCCCCC)OCC(CCN(C)C)O1 (stereo not drawn) [KEL12], the pKa [1] is reported as 6.93, the “whole‐body luciferase activity after IM administration” value (Balb/c mice) is reported as “significantly higher luciferase activity than DLin‐MC3‐DMA LNP” and the “delivery potency” value (Balb/c mice) is reported as “higher potency than LNPs with either double branched tails (KEL10) or double linear tails (KEL11)”. The “whole‐body luciferase activity after IV administration” value (Balb/c mice) was “significantly higher luciferase activity than DLin‐MC3‐DMA LNP by IV”, the “Encapsulation efficiency (%)” value [3] was 94.9% and the PDI [5] was 0.04. The “Size (nm)” value [5] was 89.54 nm.

In the case of CCCCCCCCCCC(=O)OCCCCCCC1(CCCCCCCCOC(=O)C(CCCCCCCC)CCCCCCCC)OCC(CCN(C)C)O1 (stereo not drawn) [KEL13], the pKa [1] is reported as 6.44, the “whole‐body luciferase activity after IM administration” value (Balb/c mice) is reported as “significantly higher luciferase activity than DLin‐MC3‐DMA LNP” and the “delivery potency” value (Balb/c mice) is reported as “higher potency than LNPs with either double branched tails (KEL10) or double linear tails (KEL11)”. For the same compound, the “whole‐body luciferase activity after IV administration” value (Balb/c mice; 1 mg/kg) was “lower potency than those with pKa of 6.7‐7.0”, the “Encapsulation efficiency (%)” value [3] was 91.0% and the PDI [5] was 0.09. The “Size (nm)” value [5] was 99.68 nm.

For CCCCCCCCCCCOC(=O)CCCCCN(CCO)CCCCCCCC(=O)OC(CCCCCCCC)CCCCCCCC [SM‐102], the cell viability (293T cells [6]) was “over 80%”, the “remaining after 120 minutes” value (human liver microsomes) was “about 80%” and the “decline of ionizable lipid level in plasma during the first 6 hrs” value [7] was “reduced faster than (4S)‐KEL12”. For the same compound, the “ionizable lipid level in plasma after 12 hrs” value [7] was under 10 ng/mL and the “ionizable lipid level in plasma after 24 hrs” value [7] was “undetectable”.
